Measured values as given in PMC7026418, “The kinase polypharmacology landscape of clinical PARP inhibitors” (Scientific Reports, 2020).
Like-named read-outs stand apart in the source and are kept apart here. Each block holds one compound with its values, some of them ahead of it.

What was measured:
Assay in all cases: biochemical
Parameters in all cases: DiscoveRx KINOMEscan active site-directed competition binding; percent of control kinase bound to immobilised ligand
MYLK2 = MYLK2 (Homo sapiens, UniProt Q9H1R3)
Sequence of MYLK2 (Q9H1R3 whole entry): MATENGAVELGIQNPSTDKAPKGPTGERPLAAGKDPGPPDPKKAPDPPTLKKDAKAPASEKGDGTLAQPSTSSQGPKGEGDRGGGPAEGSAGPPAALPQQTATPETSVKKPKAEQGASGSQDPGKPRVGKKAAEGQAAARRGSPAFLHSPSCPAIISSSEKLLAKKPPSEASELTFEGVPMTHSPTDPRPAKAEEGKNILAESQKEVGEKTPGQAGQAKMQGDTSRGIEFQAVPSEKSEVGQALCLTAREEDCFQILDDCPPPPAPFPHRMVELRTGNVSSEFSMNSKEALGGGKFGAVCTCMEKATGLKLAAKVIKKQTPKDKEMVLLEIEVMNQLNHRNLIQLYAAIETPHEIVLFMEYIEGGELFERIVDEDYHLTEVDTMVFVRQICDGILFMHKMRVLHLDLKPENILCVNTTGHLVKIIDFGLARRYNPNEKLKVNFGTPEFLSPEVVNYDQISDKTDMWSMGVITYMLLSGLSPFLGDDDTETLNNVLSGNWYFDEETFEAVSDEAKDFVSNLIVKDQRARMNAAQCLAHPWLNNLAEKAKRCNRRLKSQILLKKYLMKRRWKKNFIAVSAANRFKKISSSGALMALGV

MEK3 = molecular target: T1, MEK3 (Homo sapiens, UniProt P46734)
T1 construct: gene MAP2K3
T1 sequence (P46734 1-347): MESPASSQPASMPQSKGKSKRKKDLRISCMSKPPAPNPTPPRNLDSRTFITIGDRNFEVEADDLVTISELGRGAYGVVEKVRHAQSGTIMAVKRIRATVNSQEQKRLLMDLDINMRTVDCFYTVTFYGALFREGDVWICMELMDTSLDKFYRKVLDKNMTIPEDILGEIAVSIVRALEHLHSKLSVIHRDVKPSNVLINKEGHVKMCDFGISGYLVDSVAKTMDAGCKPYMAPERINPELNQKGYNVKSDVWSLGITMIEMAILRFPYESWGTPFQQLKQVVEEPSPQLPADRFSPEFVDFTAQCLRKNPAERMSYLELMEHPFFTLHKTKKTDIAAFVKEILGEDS

KIT(V559D) = KIT(V559D) (Homo sapiens, UniProt P10721, V559D)
PLK1 = PLK1 (Homo sapiens, UniProt P53350)
Sequence of PLK1 (P53350 whole entry): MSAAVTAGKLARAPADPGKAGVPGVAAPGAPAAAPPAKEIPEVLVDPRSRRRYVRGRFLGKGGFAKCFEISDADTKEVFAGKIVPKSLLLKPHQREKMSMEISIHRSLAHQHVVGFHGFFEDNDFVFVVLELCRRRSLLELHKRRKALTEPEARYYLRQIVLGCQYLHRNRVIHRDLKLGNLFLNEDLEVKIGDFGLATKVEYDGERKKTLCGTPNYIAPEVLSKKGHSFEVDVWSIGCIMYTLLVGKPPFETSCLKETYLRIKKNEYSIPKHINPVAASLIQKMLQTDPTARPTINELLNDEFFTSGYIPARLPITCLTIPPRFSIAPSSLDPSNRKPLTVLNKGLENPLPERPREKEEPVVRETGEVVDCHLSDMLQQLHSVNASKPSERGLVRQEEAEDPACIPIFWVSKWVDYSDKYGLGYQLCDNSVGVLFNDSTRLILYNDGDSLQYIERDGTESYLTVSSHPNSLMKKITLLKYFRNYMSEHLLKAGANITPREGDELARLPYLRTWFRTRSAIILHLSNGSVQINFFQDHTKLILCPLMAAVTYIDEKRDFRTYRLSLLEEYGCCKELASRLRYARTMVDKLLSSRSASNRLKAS

PIK3CG = PIK3CG (Homo sapiens, UniProt P48736)
Sequence of PIK3CG (P48736 whole entry): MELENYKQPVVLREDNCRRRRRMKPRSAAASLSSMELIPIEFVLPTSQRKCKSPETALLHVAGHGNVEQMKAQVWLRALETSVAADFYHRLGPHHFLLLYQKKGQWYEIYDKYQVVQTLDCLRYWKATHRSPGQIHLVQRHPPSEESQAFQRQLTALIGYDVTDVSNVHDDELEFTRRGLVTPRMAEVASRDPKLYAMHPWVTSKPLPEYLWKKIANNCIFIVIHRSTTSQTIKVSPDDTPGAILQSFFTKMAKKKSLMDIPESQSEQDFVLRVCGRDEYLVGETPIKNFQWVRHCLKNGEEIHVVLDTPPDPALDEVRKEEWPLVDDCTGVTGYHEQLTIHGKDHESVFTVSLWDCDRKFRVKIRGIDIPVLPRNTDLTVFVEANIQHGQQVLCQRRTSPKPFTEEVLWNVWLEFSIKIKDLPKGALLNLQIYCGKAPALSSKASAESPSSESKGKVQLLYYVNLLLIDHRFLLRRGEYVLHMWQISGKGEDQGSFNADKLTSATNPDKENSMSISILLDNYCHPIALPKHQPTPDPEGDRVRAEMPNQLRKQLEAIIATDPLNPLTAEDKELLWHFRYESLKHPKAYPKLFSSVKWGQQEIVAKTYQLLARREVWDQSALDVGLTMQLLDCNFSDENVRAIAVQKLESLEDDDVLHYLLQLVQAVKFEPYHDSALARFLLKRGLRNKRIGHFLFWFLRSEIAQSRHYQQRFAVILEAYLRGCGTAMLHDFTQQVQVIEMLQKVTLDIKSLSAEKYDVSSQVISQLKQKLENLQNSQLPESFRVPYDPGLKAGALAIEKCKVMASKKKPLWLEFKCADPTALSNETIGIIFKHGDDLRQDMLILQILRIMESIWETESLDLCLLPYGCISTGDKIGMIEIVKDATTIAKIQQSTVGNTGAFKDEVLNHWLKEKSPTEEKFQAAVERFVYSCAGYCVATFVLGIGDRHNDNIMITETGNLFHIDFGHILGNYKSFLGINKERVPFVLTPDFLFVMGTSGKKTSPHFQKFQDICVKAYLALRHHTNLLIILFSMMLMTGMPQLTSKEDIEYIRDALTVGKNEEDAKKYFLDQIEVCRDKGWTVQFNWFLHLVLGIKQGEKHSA

SGK = molecular target: T2, SGK (Homo sapiens, UniProt O00141)
T2 construct: gene SGK1
T2 sequence (O00141 1-431): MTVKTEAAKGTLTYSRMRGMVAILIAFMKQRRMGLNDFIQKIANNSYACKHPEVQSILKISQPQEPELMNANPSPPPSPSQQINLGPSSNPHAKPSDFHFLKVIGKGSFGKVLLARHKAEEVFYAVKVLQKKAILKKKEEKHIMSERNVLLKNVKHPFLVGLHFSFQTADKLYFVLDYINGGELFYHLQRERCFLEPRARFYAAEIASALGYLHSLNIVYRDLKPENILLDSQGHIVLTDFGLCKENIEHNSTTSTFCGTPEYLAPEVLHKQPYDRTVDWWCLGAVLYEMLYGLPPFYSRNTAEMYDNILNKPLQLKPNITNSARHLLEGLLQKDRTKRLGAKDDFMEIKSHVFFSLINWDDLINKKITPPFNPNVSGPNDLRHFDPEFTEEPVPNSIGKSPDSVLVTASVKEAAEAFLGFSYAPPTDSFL

MET(M1250T) = MET(M1250T) (Homo sapiens, UniProt P08581, M1250T)
Sequence of MET(M1250T) (P08581 whole entry M1250T): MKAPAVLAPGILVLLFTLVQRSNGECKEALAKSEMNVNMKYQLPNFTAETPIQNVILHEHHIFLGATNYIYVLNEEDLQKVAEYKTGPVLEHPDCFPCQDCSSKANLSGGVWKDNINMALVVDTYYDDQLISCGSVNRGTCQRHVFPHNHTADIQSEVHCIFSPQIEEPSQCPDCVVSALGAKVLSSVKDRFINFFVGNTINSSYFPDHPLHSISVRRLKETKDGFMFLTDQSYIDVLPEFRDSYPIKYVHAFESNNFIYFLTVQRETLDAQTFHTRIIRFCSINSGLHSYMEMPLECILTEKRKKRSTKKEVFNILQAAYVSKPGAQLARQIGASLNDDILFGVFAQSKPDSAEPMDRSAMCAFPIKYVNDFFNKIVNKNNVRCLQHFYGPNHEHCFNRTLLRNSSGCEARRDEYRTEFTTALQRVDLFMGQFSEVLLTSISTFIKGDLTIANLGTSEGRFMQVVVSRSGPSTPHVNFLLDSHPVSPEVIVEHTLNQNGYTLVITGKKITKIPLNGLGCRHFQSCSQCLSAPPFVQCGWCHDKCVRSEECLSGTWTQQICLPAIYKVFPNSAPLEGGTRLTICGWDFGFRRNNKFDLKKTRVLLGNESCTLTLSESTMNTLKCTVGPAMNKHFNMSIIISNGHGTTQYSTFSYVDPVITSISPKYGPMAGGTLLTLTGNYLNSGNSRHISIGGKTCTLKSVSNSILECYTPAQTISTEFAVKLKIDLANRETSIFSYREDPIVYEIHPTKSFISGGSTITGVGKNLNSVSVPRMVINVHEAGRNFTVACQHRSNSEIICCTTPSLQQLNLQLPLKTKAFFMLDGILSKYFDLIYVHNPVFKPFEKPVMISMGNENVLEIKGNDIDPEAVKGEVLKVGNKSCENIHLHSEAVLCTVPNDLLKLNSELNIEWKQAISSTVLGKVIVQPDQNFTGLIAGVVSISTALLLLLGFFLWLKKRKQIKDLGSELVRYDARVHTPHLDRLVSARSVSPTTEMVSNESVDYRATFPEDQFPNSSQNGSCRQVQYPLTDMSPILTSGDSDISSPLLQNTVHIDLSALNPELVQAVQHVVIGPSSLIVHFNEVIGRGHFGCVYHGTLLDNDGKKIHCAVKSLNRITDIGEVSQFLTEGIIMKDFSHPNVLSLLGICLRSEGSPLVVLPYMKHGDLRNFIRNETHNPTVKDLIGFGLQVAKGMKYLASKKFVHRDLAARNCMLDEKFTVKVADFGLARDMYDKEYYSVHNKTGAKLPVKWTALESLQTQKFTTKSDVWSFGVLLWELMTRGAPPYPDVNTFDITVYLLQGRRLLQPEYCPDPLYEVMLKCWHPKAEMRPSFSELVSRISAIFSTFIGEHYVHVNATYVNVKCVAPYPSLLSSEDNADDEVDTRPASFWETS

EPHA5 = EPHA5 (Homo sapiens, UniProt P54756)
Sequence of EPHA5 (P54756 whole entry): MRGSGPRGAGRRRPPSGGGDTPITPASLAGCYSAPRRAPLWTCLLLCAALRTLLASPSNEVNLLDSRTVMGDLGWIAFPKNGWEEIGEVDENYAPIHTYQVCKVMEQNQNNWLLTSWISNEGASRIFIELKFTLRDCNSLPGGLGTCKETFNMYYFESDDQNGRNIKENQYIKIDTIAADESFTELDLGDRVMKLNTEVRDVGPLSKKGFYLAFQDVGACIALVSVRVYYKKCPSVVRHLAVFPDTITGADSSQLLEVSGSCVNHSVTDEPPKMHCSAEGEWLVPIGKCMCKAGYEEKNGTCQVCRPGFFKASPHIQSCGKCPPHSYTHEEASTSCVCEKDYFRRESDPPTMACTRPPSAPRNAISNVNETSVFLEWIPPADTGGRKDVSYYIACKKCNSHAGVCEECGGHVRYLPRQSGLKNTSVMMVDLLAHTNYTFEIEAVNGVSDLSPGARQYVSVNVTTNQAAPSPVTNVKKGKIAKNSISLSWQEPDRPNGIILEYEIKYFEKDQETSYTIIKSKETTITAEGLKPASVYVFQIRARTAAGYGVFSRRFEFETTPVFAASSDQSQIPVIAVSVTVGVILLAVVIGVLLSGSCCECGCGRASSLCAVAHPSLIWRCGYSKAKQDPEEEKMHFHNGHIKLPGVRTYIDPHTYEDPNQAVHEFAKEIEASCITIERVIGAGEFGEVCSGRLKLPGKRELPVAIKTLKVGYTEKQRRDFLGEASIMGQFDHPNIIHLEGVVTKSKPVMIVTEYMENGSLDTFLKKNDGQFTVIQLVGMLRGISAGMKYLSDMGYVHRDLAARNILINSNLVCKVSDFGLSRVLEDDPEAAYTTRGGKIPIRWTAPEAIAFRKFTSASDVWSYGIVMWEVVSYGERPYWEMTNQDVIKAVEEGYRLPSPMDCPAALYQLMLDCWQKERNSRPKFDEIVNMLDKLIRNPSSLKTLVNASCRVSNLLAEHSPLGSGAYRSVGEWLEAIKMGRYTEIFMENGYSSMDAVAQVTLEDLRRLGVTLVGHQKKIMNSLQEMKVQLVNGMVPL

PAK2 = PAK2 (Homo sapiens, UniProt Q13177)
EPHA6 = molecular target: T3, EPHA6 (Homo sapiens, UniProt Q9UF33)
T3 sequence (Q9UF33 1-1036): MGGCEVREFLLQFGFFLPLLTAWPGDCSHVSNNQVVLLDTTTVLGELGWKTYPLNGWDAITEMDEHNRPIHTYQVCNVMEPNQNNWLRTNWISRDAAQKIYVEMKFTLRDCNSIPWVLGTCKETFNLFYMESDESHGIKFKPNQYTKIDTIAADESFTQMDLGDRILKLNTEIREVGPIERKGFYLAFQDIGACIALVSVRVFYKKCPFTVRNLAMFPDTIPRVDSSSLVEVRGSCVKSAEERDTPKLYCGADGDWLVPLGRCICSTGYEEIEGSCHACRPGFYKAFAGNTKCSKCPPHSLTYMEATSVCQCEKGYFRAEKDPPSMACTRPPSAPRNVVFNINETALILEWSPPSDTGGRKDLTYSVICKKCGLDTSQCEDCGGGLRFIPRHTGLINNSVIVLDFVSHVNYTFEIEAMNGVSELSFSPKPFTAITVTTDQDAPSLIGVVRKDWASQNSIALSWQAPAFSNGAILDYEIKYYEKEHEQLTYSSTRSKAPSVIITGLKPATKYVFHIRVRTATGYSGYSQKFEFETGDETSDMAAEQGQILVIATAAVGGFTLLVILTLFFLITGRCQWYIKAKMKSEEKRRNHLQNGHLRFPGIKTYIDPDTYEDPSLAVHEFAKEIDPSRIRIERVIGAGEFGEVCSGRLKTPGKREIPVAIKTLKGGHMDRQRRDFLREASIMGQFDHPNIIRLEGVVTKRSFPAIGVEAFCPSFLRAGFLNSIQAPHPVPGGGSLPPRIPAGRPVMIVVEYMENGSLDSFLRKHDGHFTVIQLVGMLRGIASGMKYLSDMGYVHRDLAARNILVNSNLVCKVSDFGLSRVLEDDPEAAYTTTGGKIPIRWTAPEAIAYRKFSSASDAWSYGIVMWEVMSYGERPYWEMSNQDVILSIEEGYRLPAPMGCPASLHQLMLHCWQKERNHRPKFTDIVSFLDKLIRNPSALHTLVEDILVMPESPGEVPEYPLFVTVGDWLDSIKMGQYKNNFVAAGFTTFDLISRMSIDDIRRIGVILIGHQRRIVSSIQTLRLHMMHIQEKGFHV

RET(V804L) = RET(V804L) (Homo sapiens, UniProt P07949, V804L)
[1] = read-out: Olaparib / %Ctrl @ 10000nM
[2] = read-out: Talazoparib (BMN 673) / %Ctrl @ 10000nM
[3] = read-out: Rucaparib / %Ctrl @ 10000nM, binding competition, % of control
[4] = read-out: Niraparib (MK-4827) / %Ctrl @ 10000nM

- percent of control binding at 10 µM (MYLK2; [1]): 100%
- percent of control binding at 10 µM (MEK3; [1]): 85%
- percent of control binding at 10 µM (KIT(V559D); [1]): 100%
- percent of control binding at 10 µM (PLK1; [1]): 85%
- percent of control binding at 10 µM (PIK3CG; [1]): 89%
- percent of control binding at 10 µM (SGK; [1]): 97%
- percent of control binding at 10 µM (MET(M1250T); [1]): 99%
- percent of control binding at 10 µM (EPHA5; [1]): 96%
- percent of control binding at 10 µM (PAK2; [1]): 92%
- percent of control binding at 10 µM (EPHA6; [1]): 94%
- percent of control binding at 10 µM (RET(V804L); [1]): 100%
SMILES: O=C(c1cc(Cc2n[nH]c(=O)c3ccccc23)ccc1F)N1CCN(C(=O)C2CC2)CC1 [Olaparib]

- percent of control binding at 10 µM (MYLK2; [2]): 100%
- percent of control binding at 10 µM (MEK3; [2]): 65%
- percent of control binding at 10 µM (KIT(V559D); [2]): 100%
- percent of control binding at 10 µM (PLK1; [2]): 89%
- percent of control binding at 10 µM (PIK3CG; [2]): 62%
- percent of control binding at 10 µM (SGK; [2]): 92%
- percent of control binding at 10 µM (MET(M1250T); [2]): 99%
- percent of control binding at 10 µM (EPHA5; [2]): 96%
- percent of control binding at 10 µM (PAK2; [2]): 84%
- percent of control binding at 10 µM (EPHA6; [2]): 100%
- percent of control binding at 10 µM (RET(V804L); [2]): 96%
SMILES: Cn1ncnc1[C@H]1c2n[nH]c(=O)c3cc(F)cc(c23)N[C@@H]1c1ccc(F)cc1 [Talazoparib]

- percent of control binding at 10 µM (MYLK2; [3]): 74%
- percent of control binding at 10 µM (MEK3; [3]): 83%
- percent of control binding at 10 µM (KIT(V559D); [3]): 92%
- percent of control binding at 10 µM (PLK1; [3]): 66%
- percent of control binding at 10 µM (PIK3CG; [3]): 88%
- percent of control binding at 10 µM (SGK; [3]): 61%
- percent of control binding at 10 µM (MET(M1250T); [3]): 99%
- percent of control binding at 10 µM (EPHA5; [3]): 93%
- percent of control binding at 10 µM (PAK2; [3]): 31%
- percent of control binding at 10 µM (EPHA6; [3]): 99%
- percent of control binding at 10 µM (RET(V804L); [3]): 95%
SMILES: CNCc1ccc(-c2[nH]c3cc(F)cc4c3c2CCNC4=O)cc1 [Rucaparib]

SMILES: NC(=O)c1cccc2cn(-c3ccc([C@@H]4CCCNC4)cc3)nc12 [Niraparib]
- percent of control binding at 10 µM (MYLK2; [4]): 92%
- percent of control binding at 10 µM (MEK3; [4]): 80%
- percent of control binding at 10 µM (KIT(V559D); [4]): 90%
- percent of control binding at 10 µM (PLK1; [4]): 100%
- percent of control binding at 10 µM (PIK3CG; [4]): 100%
- percent of control binding at 10 µM (SGK; [4]): 89%
- percent of control binding at 10 µM (MET(M1250T); [4]): 91%
- percent of control binding at 10 µM (EPHA5; [4]): 94%
- percent of control binding at 10 µM (PAK2; [4]): 45%
- percent of control binding at 10 µM (EPHA6; [4]): 89%
- percent of control binding at 10 µM (RET(V804L); [4]): 92%
